Measurements as given in US6972111B1, “Rosin amine anti-fouling agents” (Bayer Aktiengesellschaft, priority 1999, dated 2005).

System: cyprid larvae of the barnacle Balanus amphitrite
Experiment: Settlement assay of cyprid larvae of the barnacle Balanus amphitrite
Type: in vivo
Conditions: cyprid larvae in seawater test solution, 27° C.±2; Spearman-Kärber method
Protocol: The rate of settlement of laboratory reared cyprid larvae of the barnacle Balanus amphitrite was determined for testing the activity of candidate anti-fouling compounds. Settlement Assay Tests are carried out in four replicates in sterile polystyrene multi well plates. Between 25 and 40 cyprid larvae are injected in the dishes containing either 2 ml of test solution (see below), solvent control or a positive control (Dichloro-n-octyl-isothiazolinone). Dishes are incubated for 24 h at a temperature of 27° C.±2. After incubation the cyprids are screened for signs of toxicity. Larvae are classified in three categories: A) alive and swimming; B) alive but not active; C) dead. The test is terminated by addition of a drop of 20% formaldehyde and the numbers of settled and non-settled larvae are counted. Settlement is evaluated as follows: 1) Non settled: not attached free swimming cyprids; 2) settled cyprids: attached, but not metamorphosed cyprids; 3) barnacles: attached juvenile barnacles. Categories 2 and 3 are considered to be settled. Percentage settlement in test solution is compared with controls. Estimates of the median effect concentration (EC-50) after […]. are calculated using the Spearman-Kärber method. All seawater used is of natural origin and filtered unto 0.2 micron. […]

SMILES: CCCCCCCCn1sc(Cl)c(Cl)c1=O [reference*, 4,5-dichloro-n-octylisothiazolinone]
- EC50 for settlement inhibition in ppm: 0.37 ppm
